Columns and labels:
[1] = tested on: TH+ neurons in the substantia nigra pars compacta; assay: 6-OHDA injection into the substantia nigra (oxidative stress in vivo), stereological count of TH+ neurons; set-up: species or system mice; details: 24 h after injection of 6-OHDA; Stavudine 10 μM injected 30 min before and with 6-OHDA; FIG. 3B; **p<0.01, n=5
Procedure: For the 6-OHDA (6-hydroxydopamine) injections, anesthetized mice were placed on a stereotactic device and a burr hole was drilled in the cranium, 3.3 mm caudally and 1 mm laterally from the bregma. The needle of the syringe was aligned over the hole and descended 4 mm from the surface of the cranium, and 6-OHDA (2 μl; 0.8 μg/μl Sigma) or control (NaCl 0.9%) was injected into the SNpc for more than 4 min. For the immunohistological analysis, the mice were sacrificed 6 h, 24 h or 7 days after 6-OHDA injection. For the qRT-PCR analyses, tissues from the SNpc 6 h after 6-OHDA injection were obtained by extracting 1 mm samples from 2 mm thick disks of frozen tissue, using a stereotactic apparatus. The tissues were embedded in OCT, frozen in cooled isopentane, then preserved at -80° C. before being sectioned. 20 μm thick sections of the brain at the SNpc were made. […] The labeled brain sections were visualized using a confocal fluorescence microscope (SP5, Leica). […] The microscopy images were analyzed using the VisioScan T4.18 software (ExploraNova, La Rochelle, France) as described previously ([…]. 2003). The cell numbers were quantified stereologically on sections spaced apart regularly covering all of the rostrocaudal extent of the substantia nigra, using the VisioScan stereology tool. […]

primary midbrain neurons = assay: Formation of DNA breaks induced by transfection with a plasmid (wt L1) overexpressing LINE-1; format: cell-based, mouse; details: Stavudine 10 μM added 24 hours before and during lipofection; FIG. 2B; ***p<0.001, n=6
Procedure: (§1) Embryonic midbrain neurons (embryonic day 13.5) are cultured in NBGK medium (Neurobasal® (Life Technologies) supplemented with glutamine (500 μM, SIGMA), glutamic acid (3.3 mg/ml, SIGMA), aspartic acid (3.7 mg/ml, SIGMA), anti-anti and B27® (GIBCO)). A midbrain neuron culture was incubated overnight in the presence of Stavudine (10 μM in 0.9% NaCl). A control culture was treated under the same conditions, with a solution of NaCl (0.9%). The following day, the culture medium was replaced with Neurobasal® medium (Life Technologies) not supplemented with B27® (Life Technologies), containing 5 μM of H2O2 and 10 μM Stavudine/NaCl, for 1 h (FIG. 2). Alternatively, the cells were treated with H2O2 (100 μM) in the presence of B27 for one hour. Stavudine (10 μM) was added twice, 24 hours before and during treatment with H2O2 or lipofection (FIG. 2). The neurons were then fixed with PBS 4% paraformaldehyde (PFA) for 20 min, then treated with glycine (100 mM) in PBS for 10 min. […] The number of gamma-H2AX foci per neuron was counted on several slides, then the mean was taken over more than 30 neurons. […]

[2] = tested on: Mouse embryonic midbrain neurons; assay: Formation of DSBs (gamma-H2AX foci per neuron) induced by H2O2 oxidative stress in vitro; format: cell-based; details: Stavudine 10 μM; gamma-H2AX labeling; H2O2 for 1 h; FIG. 2A; ***p<0.001, n=6
Procedure: as §1
Mouse embryonic midbrain neurons (14 days' gestation), treated or untreated with an RT inhibitor (Stavudine), were subjected to an oxidative stress by addition of H2O2. […] The number of DSBs per neuron was evaluated after γ-H2AX labeling.

SMILES: Cc1cn([C@H]2C=C[C@@H](CO)O2)c(=O)[nH]c1=O [Stavudine, 2′-3′-didehydro-2′-3′-dideoxythymidine]
- number of TH+ neurons in the substantia nigra pars compacta (cell death after oxidative stress in vivo) [1]: higher
- formation of DNA breaks induced by wt L1 plasmid overexpressing LINE-1 (primary midbrain neurons): suppressed
- reduction of the formation of DSBs induced by H2O2 [2]: 40%
